Laboratory results as given in publication PMC11784200, “Insights into antibiotic resistance promoted by quinolone exposure” (Antimicrobial Agents and Chemotherapy, 2024).
Values after ≈ are worked out from the molar mass of the structure shown. Like-named read-outs stand apart in the source and are kept apart here.

How the values were obtained:
[1] = system: E. coli colonies that became resistant to CHL after CIP treatment; type: cell-based
E. coli marR mutant = assay: CHL MIC of marR mutant; type: cell-based; details: partial deletion of marR in WT E. coli
Protocol: (§1) Minimum inhibitory concentration (MIC) values were determined in triplicate as described ([55]). […] All compounds were purchased from Sigma.

MG1655 lexA(S119A) = assay: Broth-based MIC, lexA(S119A); type: cell-based, E. coli; details: Escherichia coli
Protocol: as §1

MG1655 ∆polB = assay: Broth-based MIC, ∆polB; type: cell-based, E. coli; details: Escherichia coli
Protocol: as §1

MG1655 ΔdinB ΔpolB ΔumuD = assay: Broth-based MIC, ΔdinB ΔpolB ΔumuD; type: cell-based, E. coli; details: Escherichia coli
Protocol: as §1

MG1655 ∆recA = assay: Broth-based MIC, ∆recA; type: cell-based, E. coli; details: Escherichia coli
Protocol: as §1

MG1655 ∆umuD = assay: Broth-based MIC, ∆umuD; type: cell-based, E. coli; details: Escherichia coli
Protocol: as §1

E. coli MLS83L = assay: Broth-based MIC, MLS83L; type: cell-based; details: Escherichia coli
Protocol: as §1

MG1655 ∆dinB = assay: Broth-based MIC, ∆dinB; type: cell-based, E. coli; details: Escherichia coli
Protocol: as §1

[2] = colony 1, plates with 2× MIC after 24 h on LB without selection
[3] = colony 2, plates with 2× MIC after 24 h on LB without selection
[4] = colony 3, plates with 2× MIC after 24 h on LB without selection
[5] = colony 4, plates with 2× MIC after 24 h on LB without selection
[6] = colony 5, plates with 2× MIC after 24 h on LB without selection
[7] = colony 6, plates with 2× MIC after 24 h on LB without selection
[8] = colony 7, plates with 2× MIC after 24 h on LB without selection
[9] = colony 8, plates with 2× MIC after 24 h on LB without selection
[10] = colony 9, plates with 2× MIC after 24 h on LB without selection
[11] = colony 10, plates with 2× MIC after 24 h on LB without selection
[12] = colony 11, plates with 2× MIC after 24 h on LB without selection
[13] = colony 12, plates with 2× MIC after 24 h on LB without selection
[14] = colony 13, plates with 2× MIC after 24 h on LB without selection
[15] = colony 14, plates with 2× MIC after 24 h on LB without selection
[16] = colony 15, plates with 2× MIC after 24 h on LB without selection
[17] = colony 16, plates with 2× MIC after 24 h on LB without selection
[18] = colony 17 (first line so numbered, r20), plates with 2× MIC after 24 h on LB without selection
[19] = colony 17 (second line so numbered, r21), plates with 2× MIC after 24 h on LB without selection
[20] = colony 19, plates with 2× MIC after 24 h on LB without selection
[21] = colony 20, plates with 2× MIC after 24 h on LB without selection
[22] = colony 21, plates with 2× MIC after 24 h on LB without selection
[23] = colony 22, plates with 2× MIC after 24 h on LB without selection
[24] = colony 23, plates with 2× MIC after 24 h on LB without selection
[25] = colony 24, plates with 2× MIC after 24 h on LB without selection
[26] = colony 25, plates with 2× MIC after 24 h on LB without selection
[27] = colony 26, plates with 2× MIC after 24 h on LB without selection
[28] = colony 27, plates with 2× MIC after 24 h on LB without selection

Row | Structure (SMILES) | Antibiotic resistance [1, 2] | Antibiotic resistance [1, 3] | Antibiotic resistance [1, 4] | Antibiotic resistance [1, 5] | Antibiotic resistance [1, 6] | Antibiotic resistance [1, 7] | Antibiotic resistance [1, 8] | Antibiotic resistance [1, 9] | Antibiotic resistance [1, 10] | Antibiotic resistance [1, 11] | Antibiotic resistance [1, 12] | Antibiotic resistance [1, 13] | Antibiotic resistance [1, 14] | Antibiotic resistance [1, 15] | Antibiotic resistance [1, 16] | Antibiotic resistance [1, 17] | Antibiotic resistance [1, 18] | Antibiotic resistance [1, 19] | Antibiotic resistance [1, 20] | Antibiotic resistance [1, 21] | also measured
1 | CC1(C)S[C@@H]2[C@H](NC(=O)[C@H](N)c3ccccc3)C(=O)N2[C@H]1C(=O)O [AMP, ampicillin] | No | No | No | No | No | Yes | No | No | No | No | No | No | No | No | No | No | No | No | No | No | Antibiotic resistance [1, 22]: No; Antibiotic resistance [1, 23]: No; Antibiotic resistance [1, 24]: No; Antibiotic resistance [1, 25]: No; Antibiotic resistance [1, 26]: No; Antibiotic resistance [1, 27]: No; Antibiotic resistance [1, 28]: No
2 | O=C(N[C@H](CO)[C@H](O)c1ccc([N+](=O)[O-])cc1)C(Cl)Cl [CHL, chloramphenicol] | No | No | Yes | Yes | Yes | Yes | Yes | Yes | Yes | Yes | Yes | Yes | Yes | Yes | Yes | Yes | Yes | Yes | Yes | Yes | Antibiotic resistance [1, 22]: Yes; Antibiotic resistance [1, 23]: Yes; Antibiotic resistance [1, 24]: Yes; Antibiotic resistance [1, 25]: Yes; Antibiotic resistance [1, 26]: Yes; Antibiotic resistance [1, 27]: Yes; Antibiotic resistance [1, 28]: Yes; Colonies that retained resistance ([1]; of 27 CHL-resistant colonies from CIP treatment, cultured without selection): 25; Increase in the MIC compared to the WT strain (E. coli marR mutant): eightfold
3 | O=C(O)c1cn(C2CC2)c2cc(N3CCNCC3)c(F)cc2c1=O [CIP, ciprofloxacin] |  |  |  |  |  |  |  |  |  |  |  |  |  |  |  |  |  |  |  |  | MIC (MG1655 lexA(S119A)): 0.008 µg/mL (≈ 0.0241 µM); MIC (MG1655 ∆polB): 0.032 µg/mL (≈ 0.0966 µM); MIC (MG1655 ΔdinB ΔpolB ΔumuD): 0.032 µg/mL (≈ 0.0966 µM); MIC (MG1655 ∆recA): 0.006 µg/mL (≈ 0.0181 µM); MIC (MG1655 ∆umuD): 0.021 µg/mL (≈ 0.0634 µM); MIC (E. coli MLS83L): 0.256 µg/mL (≈ 0.773 µM); MIC (MG1655 ∆dinB): 0.032 µg/mL (≈ 0.0966 µM)
4 | NC[C@H]1O[C@H](O[C@H]2[C@H](O)[C@@H](O[C@H]3O[C@H](CO)[C@@H](O)[C@H](N)[C@H]3O)[C@H](N)C[C@@H]2N)[C@H](O)[C@@H](O)[C@@H]1O [KAN, kanamycin] |  |  |  |  |  |  |  |  |  |  |  |  |  |  |  |  |  |  |  |  | Antibiotic resistance [1]: No
5 | CO[C@H]1/C=C/O[C@@]2(C)Oc3c(C)c(O)c4c(O)c(c(/C=N/N5CCN(C)CC5)c(O)c4c3C2=O)NC(=O)/C(C)=C\C=C\[C@H](C)[C@H](O)[C@@H](C)[C@@H](O)[C@@H](C)[C@H](OC(C)=O)[C@@H]1C [RIF, rifampin] |  |  |  |  |  |  |  |  |  |  |  |  |  |  |  |  |  |  |  |  | Antibiotic resistance [1]: No
6 | [H]/N=C(/N)N[C@H]1[C@H](O)[C@@H](O)[C@H](O[C@@H]2O[C@@H](C)[C@](O)(C=O)[C@H]2O[C@@H]2O[C@@H](CO)[C@H](O)[C@@H](O)[C@@H]2NC)[C@@H](N/C(N)=N\[H])[C@@H]1O [STR, streptomycin] | No | No | No | Yes | No | No | No | No | No | No | No | No | No | No | No | No | No | No | No | No | Antibiotic resistance [1, 22]: No; Antibiotic resistance [1, 23]: No; Antibiotic resistance [1, 24]: No; Antibiotic resistance [1, 25]: No; Antibiotic resistance [1, 26]: No; Antibiotic resistance [1, 27]: No; Antibiotic resistance [1, 28]: No
7 | CN(C)[C@@H]1C(O)=C(C(N)=O)C(=O)[C@@]2(O)C(O)=C3C(=O)c4c(O)cccc4[C@@](C)(O)[C@H]3C[C@@H]12 [TET, tetracycline] |  |  |  |  |  |  |  |  |  |  |  |  |  |  |  |  |  |  |  |  | Antibiotic resistance [1]: No and Yes
8 | COc1cc(Cc2cnc(N)nc2N)cc(OC)c1OC [TMP, trimethoprim] |  |  |  |  |  |  |  |  |  |  |  |  |  |  |  |  |  |  |  |  | Antibiotic resistance [1]: No and Yes
9 | Oc1cc(Cl)ccc1Oc1ccc(Cl)cc1Cl [TRI, triclosan] | No | No | Yes | No | No | No | Yes | Yes | No | Yes | No | No | No | No | No | No | No | No | No | No | Antibiotic resistance [1, 22]: No; Antibiotic resistance [1, 23]: No; Antibiotic resistance [1, 24]: No; Antibiotic resistance [1, 25]: No; Antibiotic resistance [1, 26]: No; Antibiotic resistance [1, 27]: No; Antibiotic resistance [1, 28]: No
